Laboratory results as given in PubChem BioAssay AID2060894 (Molecular Pharmacology Branch, DTP, NCI, 2025).

System: K12877-001-R-J1-PDC complex spheroid viability
Test: Anticancer human tumor K12877-001-R-J1-PDC patient-derived lung adenocarcinoma cell line growth inhibition [RAS]
Settings: for IC50: curve of first compound; for viability, T/C: stronger effect = lower value
Summary of the method: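 Agents were tested in combination matrices in half-log decrements from a top concentration at or near clinical Cmax (10 microM if undetermined). Targets were multi-cell spheroids of tumour lines plus HUVEC and MSC stromal cells.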
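Also: spheroids exposed to agents for one week before readout.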
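For viability, T/C in this document: tumour cells co-cultured with HUVEC and mesenchymal stem cells in spheroids.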

In the case of `CCC(CC)c1cc(NC2CCC(N)C2)n2nccc2n1` (centres undefined) + C#Cc1c(F)ccc2cc(O)cc(-c3ncc4c(N5CC6CCC(C5)N6)nc(OCC56CCCN5CC(F)C6)nc4c3F)c12, the IC50 (second compound 0.0316 µM) is reported as 1540 nM, the IC50 (second compound 0.1 µM) is reported as 1690 nM and the IC50 (second compound 0.316 µM) is reported as 1620 nM. The IC50 (second compound 1 µM) was 1810 nM, the IC50 (second compound 3.16 µM) was 1580 nM and the IC50 (second compound 10 µM) was 1450 nM. The viability, T/C (second compound 0.0316 µM, first compound 0.0316 µM) was 89.6%, the viability, T/C (second compound 0.0316 µM, first compound 0.1 µM) was 99.2% and the viability, T/C (second compound 0.0316 µM, first compound 0.316 µM) was 91.7%. The viability, T/C (second compound 0.0316 µM, first compound 1 µM) was 78.1%, the viability, T/C (second compound 0.0316 µM, first compound 3.16 µM) was 2.8% and the viability, T/C (second compound 0.0316 µM, first compound 10 µM) was 1.63%. The viability, T/C (second compound 0.1 µM, first compound 0.0316 µM) was 107%, the viability, T/C (second compound 0.1 µM, first compound 0.1 µM) was 92.8% and the viability, T/C (second compound 0.1 µM, first compound 0.316 µM) was 103%. For the same compound, the viability, T/C (second compound 0.1 µM, first compound 1 µM) was 89.6%, the viability, T/C (second compound 0.1 µM, first compound 3.16 µM) was 2.62% and the viability, T/C (second compound 0.1 µM, first compound 10 µM) was 1.37%. It also gave a viability, T/C (second compound 0.316 µM, first compound 0.0316 µM) of 114%, a viability, T/C (second compound 0.316 µM, first compound 0.1 µM) of 111% and a viability, T/C (second compound 0.316 µM, first compound 0.316 µM) of 93.4%. It also gave a viability, T/C (second compound 0.316 µM, first compound 1 µM) of 83.6%, a viability, T/C (second compound 0.316 µM, first compound 3.16 µM) of 3.3% and a viability, T/C (second compound 0.316 µM, first compound 10 µM) of 1.42%. For the same compound, the viability, T/C (second compound 1 µM, first compound 0.0316 µM) was 102%, the viability, T/C (second compound 1 µM, first compound 0.1 µM) was 88.8% and the viability, T/C (second compound 1 µM, first compound 0.316 µM) was 105%. For the same compound, the viability, T/C (second compound 1 µM, first compound 1 µM) was 102%, the viability, T/C (second compound 1 µM, first compound 3.16 µM) was 2.94% and the viability, T/C (second compound 1 µM, first compound 10 µM) was 1.04%. The viability, T/C (second compound 3.16 µM, first compound 0.0316 µM) was 109%, the viability, T/C (second compound 3.16 µM, first compound 0.1 µM) was 105% and the viability, T/C (second compound 3.16 µM, first compound 0.316 µM) was 103%. It also gave a viability, T/C (second compound 3.16 µM, first compound 1 µM) of 81.1%, a viability, T/C (second compound 3.16 µM, first compound 3.16 µM) of 2.74% and a viability, T/C (second compound 3.16 µM, first compound 10 µM) of 1.05%. For the same compound, the viability, T/C (second compound 10 µM, first compound 0.0316 µM) was 102%, the viability, T/C (second compound 10 µM, first compound 0.1 µM) was 86.2% and the viability, T/C (second compound 10 µM, first compound 0.316 µM) was 93.3%. For the same compound, the viability, T/C (second compound 10 µM, first compound 1 µM) was 72.4%, the viability, T/C (second compound 10 µM, first compound 3.16 µM) was 2.41% and the viability, T/C (second compound 10 µM, first compound 10 µM) was 1.21%.
`C=CC(=O)Nc1cc(Nc2nccc(-c3cn(C)c4ccccc34)n2)c(OC)cc1N(C)CCN(C)C` + CCn1c(-c2cccnc2C(C)OC)c2c3cc(ccc31)N1CCOC(CC(NC(=O)C(C(C)C)N(C)C(=O)C3(F)CCN(C(=O)C#CC(C)(C)N(C)C)CC3)C(=O)N3CCCC(N3)C(=O)OCC(C)(C)C2)C1 showed an IC50 (second compound 0.000949 µM) greater than 1000 nM, an IC50 (second compound 0.003 µM) greater than 1000 nM and an IC50 (second compound 0.00949 µM) greater than 1000 nM. The IC50 (second compound 0.03 µM) was greater than 1000 nM, the IC50 (second compound 0.0949 µM) was greater than 1000 nM and the IC50 (second compound 0.3 µM) was greater than 1000 nM. The viability, T/C (second compound 0.000949 µM, first compound 0.00316 µM) was 90.4%, the viability, T/C (second compound 0.000949 µM, first compound 0.01 µM) was 75.9% and the viability, T/C (second compound 0.000949 µM, first compound 0.0316 µM) was 85.4%. For the same compound, the viability, T/C (second compound 0.000949 µM, first compound 0.1 µM) was 78.5%, the viability, T/C (second compound 0.000949 µM, first compound 0.316 µM) was 78% and the viability, T/C (second compound 0.000949 µM, first compound 1 µM) was 69.8%. It also gave a viability, T/C (second compound 0.003 µM, first compound 0.00316 µM) of 78.2%, a viability, T/C (second compound 0.003 µM, first compound 0.01 µM) of 75.2% and a viability, T/C (second compound 0.003 µM, first compound 0.0316 µM) of 69.3%. The viability, T/C (second compound 0.003 µM, first compound 0.1 µM) was 70.5%, the viability, T/C (second compound 0.003 µM, first compound 0.316 µM) was 74.3% and the viability, T/C (second compound 0.003 µM, first compound 1 µM) was 70.3%. It also gave a viability, T/C (second compound 0.00949 µM, first compound 0.00316 µM) of 82.3%, a viability, T/C (second compound 0.00949 µM, first compound 0.01 µM) of 65% and a viability, T/C (second compound 0.00949 µM, first compound 0.0316 µM) of 75.1%. The viability, T/C (second compound 0.00949 µM, first compound 0.1 µM) was 71%, the viability, T/C (second compound 0.00949 µM, first compound 0.316 µM) was 71.6% and the viability, T/C (second compound 0.00949 µM, first compound 1 µM) was 62.7%. For the same compound, the viability, T/C (second compound 0.03 µM, first compound 0.00316 µM) was 80.5%, the viability, T/C (second compound 0.03 µM, first compound 0.01 µM) was 73.2% and the viability, T/C (second compound 0.03 µM, first compound 0.0316 µM) was 78.7%. For the same compound, the viability, T/C (second compound 0.03 µM, first compound 0.1 µM) was 79%, the viability, T/C (second compound 0.03 µM, first compound 0.316 µM) was 64.5% and the viability, T/C (second compound 0.03 µM, first compound 1 µM) was 65%. The viability, T/C (second compound 0.0949 µM, first compound 0.00316 µM) was 67.2%, the viability, T/C (second compound 0.0949 µM, first compound 0.01 µM) was 72.7% and the viability, T/C (second compound 0.0949 µM, first compound 0.0316 µM) was 74%. The viability, T/C (second compound 0.0949 µM, first compound 0.1 µM) was 69.5%, the viability, T/C (second compound 0.0949 µM, first compound 0.316 µM) was 63.5% and the viability, T/C (second compound 0.0949 µM, first compound 1 µM) was 48.5%. It also gave a viability, T/C (second compound 0.3 µM, first compound 0.00316 µM) of 69.8%, a viability, T/C (second compound 0.3 µM, first compound 0.01 µM) of 67% and a viability, T/C (second compound 0.3 µM, first compound 0.0316 µM) of 71.2%. For the same compound, the viability, T/C (second compound 0.3 µM, first compound 0.1 µM) was 70.2%, the viability, T/C (second compound 0.3 µM, first compound 0.316 µM) was 58.7% and the viability, T/C (second compound 0.3 µM, first compound 1 µM) was 52.8%.
